PubChem BioAssay AID1963848 (Molecular Pharmacology Branch, DTP, NCI, 2024)
Values joined by “and” are separate entries in the source; they are usually repeats but may differ in a detail not shown here. Equal values may be shown once.

Test system: 379773-124-R-J2-PDC spheroid viability
Assay: Anticancer human tumor 379773-124-R-J2-PDC patient-derived endometrial carcinoma cell line growth inhibition [POLQ]
Conditions: spheroids with HUVEC and MSC; for viability, T/C: stronger effect = lower value
Description: Multicellular complex tumor spheroid response to Polymerase (POL) inhibitors (novobiocin, ART-558, RP6685) in combination with a variety of drugs and investigational agents in selected tumor cell lines
The POL inhibitors (novobiocin, ART-558, and RP6685) were evaluated both individually and in combination with standard of care and investigational anticancer small molecules within a complex spheroid model of solid tumors. . Complex spheroids include a stromal component modeled by human endothelial cells (HUVEC) and fibroblasts modeled by human mesenchymal stem cells (MSCs). The concentration ranges selected for each drug and investigational agent were based upon clinically achievable concentrations if the clinical Cmax of the agent was known.
Compounds. The drugs and investigational agents: novobiocin (NSC847541), ART-558 (NSC835418), RP-6685 (NSC848927), peposertib (NSC802822), ceralasertib (NSC780249), elimusertib (NSC800525), camonsertib (NSC841442), AZD-1390 (NSC803789), olaparib (NSC753686), talazoparib (NSC767125), rucaparib (NSC756644), sotorasib (NSC818433), MRTX-1133 (NSC836407), SN-38 (NSC673596), topotecan (NSC609699), epotoside (NSC141540), doxorubicin (NSC123127), gemcitabine (NSC613327), 5-fluorouracil (NSC19893), paclitaxel (NSC125973), vemurafenib (NSC761431), MSA-2 (NSC828583), SN-011 (NSC837082), adavosertib (NSC754352), prexasertib (NSC758257), carboplatin (NSC241240) and oxaliplatin (NSC266046), were obtained from the National Cancer Institute (NCI) Developmental Therapeutics Program Chemical Repository (21). The FDA-approved anticancer drug set is available from the Developmental Therapeutics Program at https://dtp.cancer.gov/organization/dscb/obtaining/. […] The stock solutions were prepared in dimethyl sulfoxide (DMSO, Sigma-Aldrich, St. Louis, MO, cat. D2650), except for the platinum compounds which were prepared in saline (Quality Biological, Gaithersburg, MD, cat. 114-055-101), at 800-fold the tested concentration and stored at -70 degrees C prior to their use. All drugs and investigational agents were tested over a range starting from a high concentration at or near the clinical Cmax and decreasing in half-log increments. If the clinical Cmax for an agent had not been determined, the highest concentration tested was 10 microM, except for SN-38, which was tested at a high concentration of 1 microM.
Cell Culture. All cells were maintained in an incubator at 37 degrees C and 5% CO2 with 95% humidity. The PDC lines were cultured according to standard operating procedures established by the NCI PDMR (https://pdmr.cancer.gov). Table 3 of the manuscript, lists the cell lines along with the number of the three cell types plated to form the mct-spheroids and media for tumor cell growth. After thawing, all PDC lines, except 997537-175-T-J1-PDC and 415267-285-R-J2-PDC, were cultured in Matrigel-coated flasks prepared with a working solution of 1X Ham's F-12 nutrient mix, without supplementation (Thermo Fisher Scientific, cat. 11765054), 100 U/mL penicillin-streptomycin (Thermo Fisher Scientific, cat. 15140122), and 2.5% Matrigel (Corning Inc., Corning, NY, cat. 354248) for the first three passages. The two PDC lines 997537-175-T-J1-PDC and 415267-285-R-J2-PDC were cultured on uncoated flasks. The 857933-349-R-J2-PDC line was cultured in 6C/Colon 1B media containing advanced DMEM/F-12 (Thermo Fisher Scientific, cat. 12634028), 10 mM HEPES (Thermo Fisher Scientific, cat. 15630080), 1X GlutaMAX supplement (Thermo Fisher Scientific, cat. 35050061), 0.1 mg/mL primocin (InvivoGen, San Diego, CA, cat. ant-pm-2), 10% defined fetal bovine serum, heat inactivated (HyClone Laboratories Inc., Logan, UT, cat. SH30070.03HI), 50% L-WRN conditioned media (ATCC, cat. CRL-3276), 1.25 mM N-Acetyl-L-cysteine (Sigma-Aldrich, cat. A9165), 10 mM nicotinamide (Sigma-Aldrich, cat. N0636), 1X B-27 supplement (Thermo Fisher Scientific, cat. 17504044), 1X N-2 supplement (Thermo Fisher Scientific, cat. […]

[1] = curve of first compound, second compound 0.0316 µM
[2] = curve of first compound, second compound 0.1 µM
[3] = curve of first compound, second compound 0.316 µM
[4] = curve of first compound, second compound 1 µM
[5] = curve of first compound, second compound 3.16 µM
[6] = curve of first compound, second compound 10 µM
[7] = second compound 0.0316 µM, first compound 0.0316 µM
[8] = second compound 0.0316 µM, first compound 0.1 µM
[9] = second compound 0.0316 µM, first compound 0.316 µM
[10] = second compound 0.0316 µM, first compound 1 µM
[11] = second compound 0.0316 µM, first compound 3.16 µM
[12] = second compound 0.0316 µM, first compound 10 µM
[13] = second compound 0.1 µM, first compound 0.0316 µM
[14] = second compound 0.1 µM, first compound 0.1 µM
[15] = second compound 0.1 µM, first compound 0.316 µM
[16] = second compound 0.1 µM, first compound 1 µM
[17] = second compound 0.1 µM, first compound 3.16 µM
[18] = second compound 0.1 µM, first compound 10 µM
[19] = second compound 0.316 µM, first compound 0.0316 µM
[20] = second compound 0.316 µM, first compound 0.1 µM
[21] = second compound 0.316 µM, first compound 0.316 µM
[22] = second compound 0.316 µM, first compound 1 µM
[23] = second compound 0.316 µM, first compound 3.16 µM
[24] = second compound 0.316 µM, first compound 10 µM
[25] = second compound 1 µM, first compound 0.0316 µM
[26] = second compound 1 µM, first compound 0.1 µM
[27] = second compound 1 µM, first compound 0.316 µM
[28] = second compound 1 µM, first compound 1 µM
[29] = second compound 1 µM, first compound 3.16 µM
[30] = second compound 1 µM, first compound 10 µM
[31] = second compound 3.16 µM, first compound 0.0316 µM
[32] = second compound 3.16 µM, first compound 0.1 µM
[33] = second compound 3.16 µM, first compound 0.316 µM
[34] = second compound 3.16 µM, first compound 1 µM
[35] = second compound 3.16 µM, first compound 3.16 µM
[36] = second compound 3.16 µM, first compound 10 µM
[37] = second compound 10 µM, first compound 0.0316 µM
[38] = second compound 10 µM, first compound 0.1 µM
[39] = second compound 10 µM, first compound 0.316 µM
[40] = second compound 10 µM, first compound 1 µM
[41] = second compound 10 µM, first compound 3.16 µM
[42] = second compound 10 µM, first compound 10 µM
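Note: spheroids exposed to drugs for seven days before readout.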
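Throughout, for viability, T/C: percent viability relative to DMSO vehicle control taken as 100%.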

In the case of `Nc1ccc(C#CCN(C(=O)Cc2ncc(C(F)(F)F)cc2C(F)(F)F)c2ccc(F)cc2)nn1`, the viability, T/C (compound 0.0316 µM) is reported as 91.8% [middle of 13 runs], the viability, T/C (compound 0.1 µM) is reported as 92.8% [middle of 13 runs] and the viability, T/C (compound 0.316 µM) is reported as 93.2% [middle of 13 runs]. The viability, T/C (compound 1 µM) was 91.9% [middle of 13 runs], the viability, T/C (compound 3.16 µM) was 94.9% [middle of 12 runs] and the viability, T/C (compound 10 µM) was 91.4% [middle of 13 runs]. It also gave an IC50 (compound alone, run of 11/06/2023) of over 10 µM.
`CC1COCCN1c1cc(C2(O)CC3CCC(C2)O3)c2cnn(-c3ccn[nH]3)c2n1` (stereo not drawn) + Cc1cccc(N(C)C(=O)C2C(O)CCN2c2nc(C)cc(C(F)(F)F)c2C#N)c1 showed an IC50 [1] of 0.0826 µM, an IC50 [2] of 0.0926 µM and an IC50 [3] of 0.0827 µM. The IC50 [4] was 0.0961 µM, the IC50 [5] was 0.0683 µM and the IC50 [6] was 0.0681 µM. It also gave a viability, T/C [7] of 75.6%, a viability, T/C [8] of 45.4% and a viability, T/C [9] of 14.1%. It also gave a viability, T/C [10] of 12.7%, a viability, T/C [11] of 7.12% and a viability, T/C [12] of 2.45%. The viability, T/C [13] was 82.8%, the viability, T/C [14] was 48.1% and the viability, T/C [15] was 15.9%. The viability, T/C [16] was 11.5%, the viability, T/C [17] was 7.15% and the viability, T/C [18] was 2.96%. The viability, T/C [19] was 84.9%, the viability, T/C [20] was 43.2% and the viability, T/C [21] was 11.8%. It also gave a viability, T/C [22] of 9.19%, a viability, T/C [23] of 6.89% and a viability, T/C [24] of 2.54%. It also gave a viability, T/C [25] of 80.8%, a viability, T/C [26] of 49% and a viability, T/C [27] of 12.2%. The viability, T/C [28] was 10.9%, the viability, T/C [29] was 7% and the viability, T/C [30] was 2.13%. The viability, T/C [31] was 70.6%, the viability, T/C [32] was 40.2% and the viability, T/C [33] was 15.1%. For the same molecule, the viability, T/C [34] was 9.34%, the viability, T/C [35] was 7.31% and the viability, T/C [36] was 2.13%. It also gave a viability, T/C [37] of 68.3%, a viability, T/C [38] of 41.5% and a viability, T/C [39] of 15.1%. The viability, T/C [40] was 10.8%, the viability, T/C [41] was 7.1% and the viability, T/C [42] was 1.64%.
`CCc1cc2c(N3CCc4c(cc(Cn5ccnc5)cc4-c4cn(C)nc4C(F)(F)F)C3=O)ccnc2c(OC)n1` + COC1C(OC(N)=O)C(O)C(Oc2ccc3c(O)c(NC(=O)c4ccc(O)c(CC=C(C)C)c4)c(=O)oc3c2C)OC1(C)C gave an IC50 [1] of 3.42 µM, an IC50 [2] of 2.6 µM and an IC50 [3] of 2.42 µM. It also gave an IC50 [4] of 3.58 µM, an IC50 [5] of 1.79 µM and an IC50 [6] of over 10 µM. The viability, T/C [7] was 79.6%, the viability, T/C [8] was 68.7% and the viability, T/C [9] was 62.5%. The viability, T/C [10] was 58.6%, the viability, T/C [11] was 52.4% and the viability, T/C [12] was 42.6%. It also gave a viability, T/C [13] of 79.5%, a viability, T/C [14] of 64.2% and a viability, T/C [15] of 59.7%. It also gave a viability, T/C [16] of 56.1%, a viability, T/C [17] of 52.3% and a viability, T/C [18] of 42.3%. For the same molecule, the viability, T/C [19] was 75.8%, the viability, T/C [20] was 68% and the viability, T/C [21] was 59.1%. For the same molecule, the viability, T/C [22] was 57.2%, the viability, T/C [23] was 48.2% and the viability, T/C [24] was 42.3%. The viability, T/C [25] was 66.7%, the viability, T/C [26] was 65.4% and the viability, T/C [27] was 58.3%. For the same molecule, the viability, T/C [28] was 58.1%, the viability, T/C [29] was 49.5% and the viability, T/C [30] was 44.7%. It also gave a viability, T/C [31] of 77.7%, a viability, T/C [32] of 65% and a viability, T/C [33] of 55.6%. The viability, T/C [34] was 53.4%, the viability, T/C [35] was 52% and the viability, T/C [36] was 42.1%. The viability, T/C [37] was 83.3%, the viability, T/C [38] was 59.6% and the viability, T/C [39] was 64.2%. It also gave a viability, T/C [40] of 63.8%, a viability, T/C [41] of 51.1% and a viability, T/C [42] of 51.1%.
`COc1ccc([C@@H](O)c2cc(-c3ncnc4cc(N5CCOCC5)ccc34)c(F)cc2Cl)nn1` was tested, and the viability, T/C (compound 0.0316 µM) was 92.5% and 98.9% and 94.2%, the viability, T/C (compound 0.1 µM) was 91.3% and 93.2% and 82.2% and the viability, T/C (compound 0.316 µM) was 79.4% and 93.5% and 84.7%. The viability, T/C (compound 1 µM) was 99.3% and 110% and 87.4%, the viability, T/C (compound 3.16 µM) was 67.8% and 76.8% and 86.3% and the viability, T/C (compound 10 µM) was 37.9% and 43.7% and 38.1%. The IC50 (curve of compound) was 6.28 µM and 8.03 µM and 7.52 µM.
